Assay results from PubChem BioAssay (NCI).
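At the GI50, growth is halved. TGI marks complete inhibition of growth.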

Legend:
Assay in all cases: inhibition of tumour cell growth, NCI panel, 384-well format
[1] = test system: OVCAR-3 ovarian
[2] = test system: MOLT-4 leukemia
[3] = test system: A498 renal
[4] = test system: TK-10 renal
[5] = test system: HCT-15 colon
[6] = test system: HOP-92 NSCLC
[7] = test system: LOX IMVI melanoma
[8] = test system: HT29 colon
[9] = test system: KM12 colon
[10] = test system: SF-268 CNS
[11] = test system: DU-145 prostate
[12] = test system: SNB-75 CNS
[13] = test system: M14 melanoma
[14] = test system: NCI-H23 lung
[15] = test system: MDA-MB-231 breast
[16] = test system: NCI-H226 lung
[17] = test system: UACC-62 melanoma
[18] = test system: HL-60(TB) leukemia
[19] = test system: UACC-257 melanoma
[20] = test system: HS 578T breast
[21] = test system: OVCAR-5 ovarian
[22] = test system: EKVX NSCLC
[23] = test system: NCI-H460 NSCLC
[24] = test system: MCF7 breast
[25] = test system: ACHN renal
[26] = test system: COLO 205 colon
[27] = test system: OVCAR-4 ovarian
[28] = test system: HOP-62 NSCLC
[29] = test system: SR leukemia
[30] = test system: CAKI-1 renal
[31] = test system: OVCAR-8 ovarian
[32] = test system: MALME-3M melanoma
[33] = test system: UO-31 renal
[34] = test system: NCI-H322M lung
[35] = test system: A549 NSCLC
[36] = test system: SK-MEL-5 melanoma
[37] = test system: SNB-19 CNS
[38] = test system: NCI-H522 lung
[39] = test system: HCC-2998 colon
[40] = test system: SK-OV-3 ovarian
[41] = test system: RPMI-8226 leukemia
[42] = test system: SF-539 CNS
[43] = test system: MDA-MB-435 melanoma
[44] = test system: PC-3 prostate
[45] = test system: SW-620 colon
[46] = test system: 786-0 renal
[47] = test system: SK-MEL-28 melanoma
[48] = test system: BT-549 breast
[49] = test system: IGROV1 ovarian
[50] = test system: MDA-MB-468 breast
[51] = test system: SN12C renal
[52] = test system: K-562 leukemia
[53] = test system: RXF 393 renal
[54] = test system: SF-295 CNS
[55] = test system: T-47D breast
[56] = test system: CCRF-CEM leukemia
[57] = test system: NCI/ADR-RES ovarian

## Cn1ncc(-c2ccc3c(=O)[nH]nc(CN)c3c2)c1-c1c(F)cc2ccccc2c1C#N
[1]
  GI50: 1.77 µM
  TGI: 5.25 µM
[2]
  GI50: 0.0298 µM
  TGI: 0.101 µM
[3]
  GI50: 2.22 µM
  TGI: 11 µM
[4]
  GI50: 8.98 µM
  TGI: 21.2 µM
[5]
  GI50: 2.28 µM
  TGI: 10.8 µM
[6]
  GI50: 1.18 µM
  TGI: 6.91 µM
[7]
  GI50: 2.73 µM
  TGI: 11.1 µM
[8]
  GI50: 2.64 µM
  TGI: 11.8 µM
[9]
  GI50: 2.63 µM
  TGI: 11.3 µM
[10]
  GI50: 2.4 µM
  TGI: 12 µM
[11]
  GI50: 3.87 µM
  TGI: 14.9 µM
[12]
  GI50: 2.55 µM
  TGI: 10.3 µM
[13]
  GI50: 2.83 µM
  TGI: 8.76 µM
[14]
  GI50: 2.19 µM
  TGI: 7.34 µM
[15]
  GI50: 2.1 µM
  TGI: 14.4 µM
[16]
  GI50: 3.4 µM
  TGI: 15.1 µM
[17]
  GI50: 2.97 µM
  TGI: 14.2 µM
[18]
  GI50: 1.72 µM
  TGI: 3.29 µM
[19]
  GI50: 2.64 µM
  TGI: 8.43 µM
[20]
  GI50: 1.76 µM
  TGI: 4.22 µM
[21]
  GI50: 4.58 µM
  TGI: 17.1 µM
[22]
  GI50: 5.14 µM
  TGI: 18.7 µM
[23]
  GI50: 1.27 µM
  TGI: 11.5 µM
[24]
  GI50: 1.11 µM
  TGI: 9.34 µM
[25]
  GI50: 2.3 µM
  TGI: 11.2 µM
[26]
  GI50: 2.9 µM
  TGI: 15.3 µM
[27]
  GI50: 1.3 µM
  TGI: 7.5 µM
[28]
  GI50: 2.41 µM
  TGI: 13 µM
[29]
  GI50: 0.0374 µM
  TGI: 0.313 µM
[30]
  GI50: 3.23 µM
  TGI: 13.9 µM
[31]
  GI50: 2.59 µM
  TGI: 15.2 µM
[32]
  GI50: 1.59 µM
  TGI: 5.5 µM
[33]
  GI50: 6.43 µM
  TGI: 19.6 µM
[34]
  GI50: 4.74 µM
  TGI: 18.3 µM
[35]
  GI50: 2.8 µM
  TGI: 14 µM
[36]
  GI50: 1.18 µM
  TGI: 3.27 µM
[37]
  GI50: 4.87 µM
  TGI: 18.8 µM
[38]
  GI50: 2.37 µM
  TGI: 6.27 µM
[39]
  GI50: 3.08 µM
  TGI: 14 µM
[40]
  GI50: 4.57 µM
  TGI: 16.6 µM
[41]
  GI50: 1.45 µM
  TGI: 3.02 µM
[42]
  GI50: 1.84 µM
  TGI: 5.38 µM
[43]
  GI50: 2.08 µM
  TGI: 4.61 µM
[44]
  GI50: 3.96 µM
  TGI: 14.7 µM
[45]
  GI50: 2.54 µM
  TGI: 11.5 µM
[46]
  GI50: 2.13 µM
  TGI: 12.6 µM
[47]
  GI50: 3.09 µM
  TGI: 12.6 µM
[48]
  GI50: 2.9 µM
  TGI: 11 µM
[49]
  GI50: 3.42 µM
  TGI: 14 µM
[50]
  GI50: 1.31 µM
  TGI: 3.44 µM
[51]
  GI50: 2.17 µM
  TGI: 9.35 µM
[52]
  GI50: 2.11 µM
  TGI: 8.63 µM
[53]
  GI50: 1.69 µM
  TGI: 8.25 µM
[54]
  GI50: 4.96 µM
  TGI: 17.2 µM
[55]
  GI50: 1.08 µM
  TGI: 6.19 µM
[56]
  GI50: 1.15 µM
  TGI: 3.04 µM
[57]
  GI50: 5.21 µM
  TGI: 25.1 µM
